Laboratory results: PubChem BioAssay (NCI)
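Tested at 5 concentrations; 48 h exposure; 96-well plates; endpoints linearly interpolated, else capped at highest concentration. Abbreviation: GI50, concentration required for 50% inhibition of growth. TGI: concentration producing complete growth inhibition.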

Key:
Assay in all cases: growth of human tumour cells (NCI), 48 h
HOP-18 NSCLC = system: HOP-18 NSCLC
XF 498 CNS = system: XF 498 CNS
SNB-78 CNS = system: SNB-78 CNS
DLD-1 colon = system: DLD-1 colon
M19-MEL melanoma = system: M19-MEL melanoma

Compound: Cc1ccc(C)c(NC(=O)CCC(=O)CC(=O)C(C)(C)C)c1
- TGI (HOP-18 NSCLC): > 100 µM
- TGI (XF 498 CNS): > 100 µM
- TGI (SNB-78 CNS): > 100 µM
- TGI (DLD-1 colon): > 100 µM
- TGI (M19-MEL melanoma): > 100 µM

Compound: Nc1ncn([C@@H]2C=C(CO)C(O)C2O)c(=O)n1 (stereo partly drawn)
- TGI (HOP-18 NSCLC): > 100 µM
- TGI (XF 498 CNS): > 100 µM
- TGI (SNB-78 CNS): > 100 µM
- TGI (DLD-1 colon): > 100 µM
- TGI (M19-MEL melanoma): > 100 µM

Compound: O=C1/C(=C/c2ccccc2Cl)COc2ccccc21
- TGI (HOP-18 NSCLC): 24 µM
- TGI (XF 498 CNS): 29.2 µM
- TGI (SNB-78 CNS): 41.3 µM
- TGI (DLD-1 colon): 29.4 µM
- TGI (M19-MEL melanoma): 34.2 µM

Compound: CC1(C)CC[C@]2(C(=O)O)CCC3(C)C(=CCC4[C@@]5(C)CC[C@H](OC6OCC(O)C(O)C6OC6OC(CO)C(O)C(O)C6O)C(C)(C)C5CC[C@]43C)C2C1 (stereo partly drawn)
- TGI (HOP-18 NSCLC): 3.48 µM
- TGI (XF 498 CNS): 4.59 µM
- TGI (SNB-78 CNS): 5.04 µM
- TGI (DLD-1 colon): 22.7 µM
- TGI (M19-MEL melanoma): 3.46 µM

Compound: Clc1ccc(C2=NN(c3ccccc3)C3c4cc(Br)ccc4OCC23)cc1 (stereo not drawn)
- TGI (HOP-18 NSCLC): > 100 µM
- TGI (XF 498 CNS): > 100 µM
- TGI (SNB-78 CNS): > 100 µM
- TGI (DLD-1 colon): > 100 µM
- TGI (M19-MEL melanoma): > 100 µM

Compound: O=[N+]([O-])c1ccc(N=Nc2c(O)[nH]c3ccc(Br)cc23)c([N+](=O)[O-])c1
- TGI (HOP-18 NSCLC): 4.69 µM
- TGI (SNB-78 CNS): > 100 µM
- TGI (DLD-1 colon): 20.4 µM
- TGI (M19-MEL melanoma): 9.91 µM

Compound: O=c1[nH]cnc2c1nnn2C1C=C(CO)C(O)C1O (stereo not drawn)
- TGI (HOP-18 NSCLC): > 100 µM
- TGI (XF 498 CNS): > 100 µM
- TGI (SNB-78 CNS): > 100 µM
- TGI (DLD-1 colon): > 100 µM
- TGI (M19-MEL melanoma): > 100 µM

Compound: Nc1cc2c3c(cccc3c1)C(=O)N(CCN1CCN(CCN3C(=O)c4cccc5cc(N)cc(c45)C3=O)CC1)C2=O
- TGI (HOP-18 NSCLC): > 100 µM
- TGI (XF 498 CNS): > 100 µM
- TGI (M19-MEL melanoma): > 100 µM

Compound: COc1ccc(C=O)c(N(C)C(=O)C(C)(C)C)c1
- TGI (HOP-18 NSCLC): > 100 µM
- TGI (XF 498 CNS): > 100 µM
- TGI (SNB-78 CNS): > 100 µM
- TGI (M19-MEL melanoma): > 100 µM

Compound: C[CH2][Sn]([CH2]C)([O]C(=O)c1cc(OC)c(OC)c(OC)c1)[O][Sn]([CH2]C)([CH2]C)[O]C(=O)c1cc(OC)c(OC)c(OC)c1
- GI50 (HOP-18 NSCLC): 22.2 µM
- TGI (HOP-18 NSCLC): 42.4 µM
- GI50 (XF 498 CNS): 16.9 µM
- TGI (XF 498 CNS): 31.3 µM
- GI50 (SNB-78 CNS): 17 µM
- TGI (SNB-78 CNS): 41 µM
- GI50 (DLD-1 colon): 27.9 µM
- TGI (DLD-1 colon): > 74.1 µM
- GI50 (M19-MEL melanoma): 31.3 µM
- TGI (M19-MEL melanoma): > 100 µM

Compound: Cc1cc2c(C)nn(Cc3ccc(Cl)cc3Cl)c2c(C#N)c1C
- TGI (HOP-18 NSCLC): > 100 µM
- TGI (XF 498 CNS): > 100 µM
- TGI (SNB-78 CNS): > 100 µM
- TGI (DLD-1 colon): > 100 µM
- TGI (M19-MEL melanoma): > 100 µM

Compound: CCOc1ccc(NC(=O)/C(=C/c2ccccc2)C(C)=O)cc1
- TGI (HOP-18 NSCLC): 25.5 µM
- TGI (XF 498 CNS): 28.9 µM
- TGI (SNB-78 CNS): 38.8 µM
- TGI (DLD-1 colon): 24 µM
- TGI (M19-MEL melanoma): 27.7 µM

Compound: CCN1N=CSC12C(=O)N(c1ccccc1)C(=O)N2c1ccccc1 (stereo not drawn)
- TGI (HOP-18 NSCLC): > 100 µM
- TGI (XF 498 CNS): > 100 µM
- TGI (SNB-78 CNS): > 100 µM
- TGI (DLD-1 colon): > 100 µM

Compound: COc1ccc(C(=O)Nc2ccccc2C#N)cc1
- TGI (HOP-18 NSCLC): > 100 µM
- TGI (XF 498 CNS): > 100 µM
- TGI (SNB-78 CNS): > 100 µM
- TGI (DLD-1 colon): > 100 µM
- TGI (M19-MEL melanoma): > 100 µM

Compound: Nc1ccc(C(=O)O)c2[nH]c3ccccc3c(=O)c12
- TGI (HOP-18 NSCLC): > 100 µM
- TGI (SNB-78 CNS): > 100 µM
- TGI (DLD-1 colon): > 100 µM
- TGI (M19-MEL melanoma): > 100 µM

Compound: Cc1cc(C)c2c(c1C)CN1CN2Cc2c(C)c(C)cc(C)c21
- TGI (HOP-18 NSCLC): > 100 µM
- TGI (SNB-78 CNS): > 100 µM
- TGI (DLD-1 colon): > 100 µM
- TGI (M19-MEL melanoma): > 100 µM

Compound: Cc1ccc(NC(=O)CCC(=O)C2CC(=O)CCC2=O)cc1C (stereo not drawn)
- TGI (HOP-18 NSCLC): > 100 µM
- TGI (SNB-78 CNS): > 100 µM
- TGI (DLD-1 colon): > 100 µM
- TGI (M19-MEL melanoma): > 100 µM

Compound: COc1ccc(Br)c(CCCCC(=O)O)c1
- TGI (HOP-18 NSCLC): > 100 µM
- TGI (XF 498 CNS): > 100 µM
- TGI (SNB-78 CNS): > 100 µM
- TGI (DLD-1 colon): > 100 µM
- TGI (M19-MEL melanoma): > 100 µM

Compound: COC(=O)C1(c2ccc(OC)cc2)NC(c2ccccc2)C2C(=O)N(c3ccc(OC)cc3)C(=O)C21 (stereo not drawn)
- TGI (XF 498 CNS): > 100 µM
- TGI (SNB-78 CNS): > 100 µM
- TGI (DLD-1 colon): > 100 µM

Compound: CCOC(=O)C12CN(C34CC5CC(CC(C5)C3)C4)CC(C(=O)OCC)(C1=O)C(c1ccccc1)OC2c1ccccc1 (stereo not drawn)
- TGI (XF 498 CNS): > 100 µM
- TGI (SNB-78 CNS): > 100 µM
- TGI (DLD-1 colon): > 100 µM
- TGI (M19-MEL melanoma): > 100 µM

Compound: C=C1C(=O)C23C(O)C1CCC2C12CO[C@]3(O)[C@@H](O)C1C(C)(C)CCC2O (stereo partly drawn)
- TGI (HOP-18 NSCLC): 25.5 µM
- TGI (XF 498 CNS): 5.24 µM
- TGI (SNB-78 CNS): 32.8 µM
- TGI (DLD-1 colon): 33.8 µM
- TGI (M19-MEL melanoma): 23.7 µM

Compound: O=C1NCC2=C1CCC1c3ccccc3CCN21 (stereo not drawn)
- TGI (XF 498 CNS): > 100 µM
- TGI (SNB-78 CNS): > 100 µM
- TGI (DLD-1 colon): > 100 µM
- TGI (M19-MEL melanoma): > 100 µM

Compound: COc1ccc(C(=O)Nc2ccccc2)cc1[N+](=O)[O-]
- TGI (XF 498 CNS): > 100 µM
- TGI (SNB-78 CNS): > 100 µM
- TGI (DLD-1 colon): > 100 µM
- TGI (M19-MEL melanoma): > 100 µM

Compound: COc1cc(C2c3cc4c(cc3[C@@H](OCCN)[C@H]3COC(=O)C23)OCO4)cc(OC)c1O (stereo partly drawn)
- TGI (HOP-18 NSCLC): > 100 µM
- TGI (XF 498 CNS): 0.489 µM
- TGI (SNB-78 CNS): > 58.9 µM
- TGI (DLD-1 colon): 6.76 µM
- TGI (M19-MEL melanoma): 2.14 µM

Compound: Fc1cccc(C=NC23CC4CC(CC(C4)C2)C3)c1
- TGI (HOP-18 NSCLC): > 100 µM
- TGI (XF 498 CNS): > 100 µM
- TGI (SNB-78 CNS): > 100 µM
- TGI (DLD-1 colon): > 100 µM
- TGI (M19-MEL melanoma): > 100 µM

Compound: COc1cc(-c2[nH]ncc2CCCC(=O)Nc2ccccc2[N+](=O)[O-])ccc1O
- TGI (HOP-18 NSCLC): > 100 µM
- TGI (XF 498 CNS): > 100 µM
- TGI (DLD-1 colon): > 100 µM

Compound: Cn1c(=O)c2c(nc3n2C(CCl)CO3)n(C)c1=O (stereo not drawn)
- TGI (HOP-18 NSCLC): > 100 µM
- TGI (SNB-78 CNS): > 100 µM
- TGI (DLD-1 colon): > 100 µM
- TGI (M19-MEL melanoma): > 100 µM

Compound: COC(=O)C12C3C=CC(O3)C1C1C=CC2O1 (stereo not drawn)
- TGI (HOP-18 NSCLC): > 100 µM
- TGI (XF 498 CNS): > 100 µM
- TGI (DLD-1 colon): > 100 µM
- TGI (M19-MEL melanoma): > 100 µM

Compound: COc1ccc(Nc2nc3c(N)cc(C(F)(F)F)cc3nc2-c2ccccc2)cc1
- TGI (HOP-18 NSCLC): > 100 µM
- TGI (XF 498 CNS): > 100 µM
- TGI (SNB-78 CNS): > 100 µM
- TGI (DLD-1 colon): > 100 µM
- TGI (M19-MEL melanoma): > 100 µM
